Values joined by “and” are separate entries in the source; they are usually repeats but may differ in a detail not shown here. Equal values may be shown once.
Test system: BDF1 mice, Adenocarcinoma 755 s.c., tumor weight T/C
Experiment: NCI In Vivo Anticancer Drug Screen. Data for tumor model Adenocarcinoma 755 (subcutaneous) in B6D2F1 (BDF1) mice
Settings: endpoint: mean tumor weight, higher = larger tumour
Procedure, shortened: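 Transplantable tumor implanted; mice dosed with compound or vehicle; survival or tumor size recorded; ratio of treated to vehicle control reported.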

## CC(=O)[C@@]1(O)CC[C@H]2[C@@H]3C[C@H](C)C4=CC(=O)C=C[C@]4(C)[C@@]3(F)[C@@H](O)C[C@@]21C
dose: 0.37 mg/kg/injection, schedule: Q#A X022 (sc), vehicle: steriod suspending solution
  T/C: 55 % of control
dose: 0.5 mg/kg/injection, schedule: Q01DX011 (sc), vehicle: steriod suspending solution
  T/C: 40 % of control
dose: 0.75 mg/kg/injection, schedule: Q#A X022 (sc), vehicle: steriod suspending solution
  T/C: 67 % of control
dose: 1.0 mg/kg/injection, schedule: Q03DX004 (sc), vehicle: steriod suspending solution
  T/C: 62 % of control
dose: 1.5 mg/kg/injection, schedule: Q#A X022 (sc), vehicle: steriod suspending solution
  T/C: 44 % of control
dose: 1.6 mg/kg/injection, schedule: Q01DX011 (sc), vehicle: steriod suspending solution
  T/C: 57 % of control
dose: 2.0 mg/kg/injection, schedule: Q03DX004 (sc), vehicle: steriod suspending solution
  T/C: 44 % of control
dose: 3.0 mg/kg/injection, schedule: Q01DX011 (im), vehicle: steriod suspending solution
  T/C: 43 % of control
dose: 3.0 mg/kg/injection, schedule: Q01DX011 (sc), vehicle: steriod suspending solution
  T/C: 47 % of control and 51 % of control
dose: 3.0 mg/kg/injection, schedule: Q#A X022 (sc), vehicle: steriod suspending solution
  T/C: 39 % of control
dose: 3.2 mg/kg/injection, schedule: Q01DX011 (sc), vehicle: steriod suspending solution
  T/C: 31 % of control
dose: 4.0 mg/kg/injection, schedule: Q03DX004 (sc), vehicle: steriod suspending solution
  T/C: 72 % of control
dose: 6.0 mg/kg/injection, schedule: Q01DX011 (im), vehicle: steriod suspending solution
  T/C: 38 % of control
dose: 6.0 mg/kg/injection, schedule: Q01DX011 (sc), vehicle: steriod suspending solution
  T/C: 16 % of control and 25 % of control
dose: 6.3 mg/kg/injection, schedule: Q01DX011 (sc), vehicle: steriod suspending solution
  T/C: 49 % of control
dose: 8.0 mg/kg/injection, schedule: Q03DX004 (sc), vehicle: steriod suspending solution
  T/C: 52 % of control
dose: 9.0 mg/kg/injection, schedule: Q03DX004 (sc), vehicle: steriod suspending solution
  T/C: 35 % of control
dose: 12.0 mg/kg/injection, schedule: Q01DX011 (sc), vehicle: steriod suspending solution
  T/C: 16 % of control
dose: 12.5 mg/kg/injection, schedule: Q01DX006 (iv), vehicle: steriod suspending solution
  T/C: 45 % of control
dose: 12.5 mg/kg/injection, schedule: Q01DX011 (im), vehicle: steriod suspending solution
  T/C: 21 % of control
dose: 12.5 mg/kg/injection, schedule: Q01DX011 (ip), vehicle: steriod suspending solution
  T/C: 48 % of control
dose: 12.5 mg/kg/injection, schedule: Q01DX011 (sc), vehicle: steriod suspending solution
  T/C: 19 % of control and 39 % of control
dose: 18.0 mg/kg/injection, schedule: Q03DX004 (sc), vehicle: steriod suspending solution
  T/C: 35 % of control
dose: 22.0 mg/kg/injection, schedule: Q## X002 (sc), vehicle: steriod suspending solution
  T/C: 55 % of control
dose: 24.0 mg/kg/injection, schedule: Q01DX011 (sc), vehicle: steriod suspending solution
  T/C: 20 % of control
dose: 25.0 mg/kg/injection, schedule: Q01DX006 (iv), vehicle: steriod suspending solution
  T/C: 30 % of control
dose: 25.0 mg/kg/injection, schedule: Q01DX011 (im), vehicle: steriod suspending solution
  T/C: 12 % of control
dose: 25.0 mg/kg/injection, schedule: Q01DX011 (ip), vehicle: steriod suspending solution
  T/C: 42 % of control
dose: 25.0 mg/kg/injection, schedule: Q01DX011 (sc), vehicle: steriod suspending solution
  T/C: 12 % of control
dose: 27.5 mg/kg/injection, schedule: Q01DX011 (sc), vehicle: steriod suspending solution
  T/C: 36 % of control and 54 % of control
dose: 37.0 mg/kg/injection, schedule: Q03DX004 (sc), vehicle: steriod suspending solution
  T/C: 36 % of control
dose: 43.0 mg/kg/injection, schedule: Q## X002 (sc), vehicle: steriod suspending solution
  T/C: 30 % of control
dose: 50.0 mg/kg/injection, schedule: Q01DX006 (iv), vehicle: steriod suspending solution
  T/C: 25 % of control
dose: 50.0 mg/kg/injection, schedule: Q01DX011 (im), vehicle: steriod suspending solution
  T/C: 14 % of control
dose: 50.0 mg/kg/injection, schedule: Q01DX011 (ip), vehicle: steriod suspending solution
  T/C: 34 % of control
dose: 50.0 mg/kg/injection, schedule: Q01DX011 (oral), vehicle: steriod suspending solution
  T/C: 47 % of control
dose: 50.0 mg/kg/injection, schedule: Q01DX011 (sc), vehicle: steriod suspending solution
  T/C: 11 % of control
dose: 55.0 mg/kg/injection, schedule: Q01DX011 (sc), vehicle: steriod suspending solution
  T/C: 28 % of control
dose: 75.0 mg/kg/injection, schedule: Q03DX004 (sc), vehicle: steriod suspending solution
  T/C: 18 % of control
dose: 87.0 mg/kg/injection, schedule: Q01DX001 (sc), vehicle: steriod suspending solution
  T/C: 53 % of control and 66 % of control
dose: 87.0 mg/kg/injection, schedule: Q07DX002 (sc), vehicle: steriod suspending solution
  T/C: 37 % of control
dose: 100.0 mg/kg/injection, schedule: Q01DX006 (iv), vehicle: steriod suspending solution
  T/C: 19 % of control
dose: 100.0 mg/kg/injection, schedule: Q01DX011 (im), vehicle: steriod suspending solution
  T/C: 7 % of control
dose: 100.0 mg/kg/injection, schedule: Q01DX011 (oral), vehicle: steriod suspending solution
  T/C: 59 % of control
dose: 100.0 mg/kg/injection, schedule: Q01DX011 (sc), vehicle: steriod suspending solution
  T/C: 13 % of control
dose: 150.0 mg/kg/injection, schedule: Q03DX004 (sc), vehicle: steriod suspending solution
  T/C: 25 % of control
dose: 175.0 mg/kg/injection, schedule: Q01DX001 (sc), vehicle: steriod suspending solution
  T/C: 38 % of control and 43 % of control
dose: 175.0 mg/kg/injection, schedule: Q07DX002 (sc), vehicle: steriod suspending solution
  T/C: 27 % of control
dose: 200.0 mg/kg/injection, schedule: Q01DX006 (iv), vehicle: steriod suspending solution
  T/C: 14 % of control
dose: 200.0 mg/kg/injection, schedule: Q01DX011 (im), vehicle: steriod suspending solution
  T/C: 8 % of control
dose: 200.0 mg/kg/injection, schedule: Q01DX011 (oral), vehicle: steriod suspending solution
  T/C: 42 % of control
dose: 200.0 mg/kg/injection, schedule: Q01DX011 (sc), vehicle: steriod suspending solution
  T/C: 3 % of control
dose: 300.0 mg/kg/injection, schedule: Q01DX011 (sc), vehicle: steriod suspending solution
  T/C: 7 % of control
dose: 300.0 mg/kg/injection, schedule: Q03DX004 (sc), vehicle: steriod suspending solution
  T/C: 15 % of control
dose: 350.0 mg/kg/injection, schedule: Q01DX001 (sc), vehicle: steriod suspending solution
  T/C: 28 % of control and 47 % of control
dose: 350.0 mg/kg/injection, schedule: Q07DX002 (sc), vehicle: steriod suspending solution
  T/C: 19 % of control
dose: 400.0 mg/kg/injection, schedule: Q01DX011 (oral), vehicle: steriod suspending solution
  T/C: 34 % of control
dose: 400.0 mg/kg/injection, schedule: Q03DX004 (sc), vehicle: steriod suspending solution
  T/C: 19 % of control
dose: 500.0 mg/kg/injection, schedule: Q01DX011 (oral), vehicle: steriod suspending solution
  T/C: 37 % of control
dose: 600.0 mg/kg/injection, schedule: Q01DX011 (oral), vehicle: steriod suspending solution
  T/C: 38 % of control
dose: 600.0 mg/kg/injection, schedule: Q03DX004 (sc), vehicle: steriod suspending solution
  T/C: 15 % of control
dose: 700.0 mg/kg/injection, schedule: Q01DX001 (sc), vehicle: steriod suspending solution
  T/C: 26 % of control and 43 % of control
dose: 700.0 mg/kg/injection, schedule: Q07DX002 (sc), vehicle: steriod suspending solution
  T/C: 19 % of control
dose: 1000.0 mg/kg/injection, schedule: Q01DX001 (sc), vehicle: steriod suspending solution
  T/C: 36 % of control and 45 % of control
dose: 1000.0 mg/kg/injection, schedule: Q## X002 (sc), vehicle: steriod suspending solution
  T/C: 22 % of control
dose: 1500.0 mg/kg/injection, schedule: Q01DX001 (sc), vehicle: steriod suspending solution
  T/C: 24 % of control and 40 % of control
dose: 1500.0 mg/kg/injection, schedule: Q## X002 (sc), vehicle: steriod suspending solution
  T/C: 24 % of control

## c1ncc2[nH]cnc2n1
dose: 27.33 mg/kg/injection, schedule: Q01DX011 (ip), vehicle: carboxymethylcellulose (CMC)
  T/C: 71 % of control
dose: 49.34 mg/kg/injection, schedule: Q01DX011 (ip), vehicle: carboxymethylcellulose (CMC)
  T/C: 80 % of control
dose: 54.67 mg/kg/injection, schedule: Q01DX011 (ip), vehicle: carboxymethylcellulose (CMC)
  T/C: 82 % of control
dose: 62.5 mg/kg/injection, schedule: Q01DX011 (ip), vehicle: methylcellulose (MC)
  T/C: 68 % of control
dose: 98.68 mg/kg/injection, schedule: Q01DX011 (ip), vehicle: carboxymethylcellulose (CMC)
  T/C: 71 % of control
dose: 109.35 mg/kg/injection, schedule: Q01DX011 (ip), vehicle: carboxymethylcellulose (CMC)
  T/C: 91 % of control
dose: 125.0 mg/kg/injection, schedule: Q01DX011 (ip), vehicle: methylcellulose (MC)
  T/C: 57 % of control
dose: 173.2 mg/kg/injection, schedule: Q01DX011 (ip), vehicle: carboxymethylcellulose (CMC)
  T/C: 101 % of control
dose: 197.35 mg/kg/injection, schedule: Q01DX011 (ip), vehicle: carboxymethylcellulose (CMC)
  T/C: 69 % of control
dose: 218.7 mg/kg/injection, schedule: Q01DX011 (ip), vehicle: carboxymethylcellulose (CMC)
  T/C: 123 % of control
dose: 250.0 mg/kg/injection, schedule: Q01DX011 (ip), vehicle: methylcellulose (MC)
  T/C: 54 % of control
dose: 288.66 mg/kg/injection, schedule: Q01DX011 (ip), vehicle: carboxymethylcellulose (CMC)
  T/C: 72 % of control
dose: 394.7 mg/kg/injection, schedule: Q01DX011 (ip), vehicle: carboxymethylcellulose (CMC)
  T/C: 35 % of control

Reference: PubChem BioAssay AID180 (DTP/NCI, 2004)
